# Where “and” joins values, the source holds several entries; their conditions need not be identical. Equal values may be shown once.
# Assay: Absorption peaks of photosensitizers
# Type: physicochemical
# Details: relevant absorption peaks, Table 1
# Excerpt: FIG. 1 is a graph showing the absorption bands of protoporphyrin IX, which is produced as a result of 5-aminolevulinic acid metabolism in a mammal. Protoporphyrin IX has an absorption band located in the blue spectral region (the 410 nanometer Soret band) and other weaker absorption bands in the 500 to 650 nanometer visible region, namely at about 506 nanometers, 546 nanometers, and 578 nanometers. […] Table 1 lists several photosensitizers useful in the practice of the invention, and identifies relevant absorption peaks for each of the listed photosensitizers. While the 460 nanometer to 620 nanometer wavelength range includes the relatively strong absorption peaks of oxyhemoglobin and deoxyhemoglobin, these blood components have other absorption peaks (although of lower relative maxima) at longer wavelengths. For example, deoxyhemoglobin has a weaker absorption peak at about 757 nanometers, and oxyhemoglobin has a weaker absorption peak at about 920 nanometers. Pulsed light sources in the red and near infrared (up to approximately 940 nanometers), for example, the flash lamp pumped alexandrite laser (755 nanometer), or semiconductor diode lasers, for example, gallium arsenide laser (810 nanometer) are capable of selective photothermolysis of blood vessels, including the microvessels in psoriatic lesions. Accordingly, under certain circumstances, it may be advantageous to use a source of pulsed or scanned irradiation having a wavelength in the range from about 640 nanometers to about 940 nanometers to perform combined selective photothermolysis of blood vessels and photodynamic therapy (using the appropriate photosensitizer) in the target region. Useful photosensitizers that absorb light in this spectral region include, for example, Pd(II)-octabutoxyphthalocyanine (732 nm, 838 nm), Si(IV)-napthalocyanine (773 nm)(Jori (1996) J. PHOTOCHEM. PHOTOBIOL. B 87-93), and 5,15-etiobacteriopurpurin (768 nm, 843 nm) (U.S. Pat. No. 6,376,483 B1).
row,Molecule,Wavelength of absorption peaks
1,O=C([O-])c1c(Cl)c(Cl)c(Cl)c(Cl)c1-c1c2cc(I)c(=O)c(I)c-2oc2c(I)c([O-])c(I)cc12.[Na+].[Na+] [rose bengal],548 nm
2,benzoporphyrin derivative mono-acid,˜585 nm
3,"nickel 5,10-bis-acrylate etioporphyrin I",580 nm

# Assay: not given
# Details: spectral region about 640 to about 940 nanometers; cited from earlier work
row,Molecule,wavelength of light absorbed
1,"5,15-etiobacteriopurpurin",768 nm and 843 nm
2,Pd(II)-octabutoxyphthalocyanine,732 nm and 838 nm
3,Si(IV)-napthalocyanine,773 nm
